# Experimental data taken from patent US10538520B2, “Benzamide and nicotinamide compounds and methods of using same” (OncoTartis Inc., priority 2013, dated 2020).
# Key:
# U-937 = test: Cytotoxicity towards U-937 cell line; type: cell-based; conditions: Homo sapiens
# Method: (§1) In various embodiments, the compounds of the disclosure are those in which show IC50 values in cytotoxicity experiments towards cells lines MV4-11 and U937 of >20 μM, 10-20 μM, 5-10 μM, 1-5 μM, or <1 μM.
# (§2) The IC50 is divided into 5 categories: A<1 μM, B 1-5 μM, C 5-10 μM, D 10-20 μM, and E>20 μM.
# MV4-11 = test: Cytotoxicity towards MV4-11 cell line; type: cell-based; conditions: Homo sapiens
# Method: as §1, §2
Structure (SMILES),IC50 (U-937) [nM],IC50 (MV4-11) [nM]
O=C(NCCCn1ccnc1)c1ccc(-n2cccn2)c(C#Cc2ccccc2F)c1 [TT-03225],< 1000,< 1000
O=C(NCCCc1cn[nH]c1)c1ccc(N2CCCC2)c(C#Cc2ccccc2)c1 [TT-03230],< 1000,< 1000
O=C(NCCCc1cn[nH]c1)c1ccc(N2CCOCC2)c(C#Cc2ccccc2)c1 [TT-03232],< 1000,< 1000
O=C(NCCCc1cn[nH]c1)c1ccc(Oc2ccccc2)c(C#Cc2ccccc2)c1 [TT-03233],< 1000,< 1000
O=C(NCCCc1cn[nH]c1)c1ccc(-n2cnnc2)c(C#Cc2ccccc2)c1 [TT-03237],> 20000,> 20000
CN(C)c1ccc(C(=O)NCCCc2cn[nH]c2)cc1C#Cc1ccccc1 [TT-03242],< 1000,< 1000
O=C(NCCCc1cn[nH]c1)c1ccc(-c2cccnc2)c(C#Cc2ccccc2)c1 [TT-03245],< 1000,< 1000
O=C(NCCCc1cn[nH]c1)c1ccc(-c2ccncc2)c(C#Cc2ccccc2)c1 [TT-03246],< 1000,< 1000
Cc1ccc(C(=O)NCCCc2cn[nH]c2)cc1C#Cc1ccccc1 [TT-03248],< 1000,< 1000
CN(C)c1ccc(C(=O)NCCCn2ccnc2)cc1C#Cc1ccccc1 [TT-03252],< 1000,< 1000
O=C(NCCCn1ccnc1)c1ccc(-c2ccncc2)c(C#Cc2ccccc2)c1 [TT-03256],< 1000,< 1000
O=C(NCCCn1ccnc1)c1ccc(N2CCOCC2)c(C#Cc2ccccc2)c1 [TT-03261],< 1000,< 1000
O=C(NCCCn1ccnc1)c1ccc(-n2cccn2)c(C#Cc2cccnc2)c1 [TT-03264],< 1000,< 1000
O=C(NCCCc1cn[nH]c1)c1ccc(-n2cccn2)c(C#Cc2cccnc2)c1 [TT-03303],< 1000,< 1000
O=C(NCCCc1cn[nH]c1)c1ccc(-n2cccn2)c(C#Cc2ccncc2)c1 [TT-03304],< 1000,< 1000
O=C(NCCCn1ccnc1)c1ccc(-n2cccn2)c(C#Cc2ccncc2)c1 [TT-03305],< 1000,< 1000
COc1ccc(C#Cc2cc(C(=O)NCCCc3cn[nH]c3)ccc2-n2cccn2)cc1 [TT-03306],< 1000,< 1000
COc1cccc(C#Cc2cc(C(=O)NCCCc3cn[nH]c3)ccc2-n2cccn2)c1 [TT-03308],< 1000,< 1000
COc1cccc(C#Cc2cc(C(=O)NCCCn3ccnc3)ccc2-n2cccn2)c1 [TT-03309],< 1000,< 1000
O=C(NCCCc1cn[nH]c1)c1ccc(-n2cccn2)c(C#Cc2cccc(O)c2)c1 [TT-03311],< 1000,< 1000
O=C(NCCCn1ccnc1)c1ccc(-n2cccn2)c(C#Cc2cccc(O)c2)c1 [TT-03312],< 1000,< 1000
O=C(NCCCc1cn[nH]c1)c1ccc(-n2cccn2)c(C#Cc2ccccc2Cl)c1 [TT-03321],< 1000,< 1000
O=C(NCCCc1cn[nH]c1)c1ccc(-n2cccn2)c(C#Cc2cccc(Cl)c2)c1 [TT-03322],< 1000,< 1000

Structure (SMILES),IC50 (U-937) [nM],IC50 (MV4-11) [nM]
O=C(NCCCc1cn[nH]c1)c1ccc(-n2cccn2)c(C#Cc2ccccc2C(F)(F)F)c1 [TT-03323],< 1000,< 1000
O=C(NCCCc1cn[nH]c1)c1ccc(-n2cccn2)c(C#Cc2ccc(C(F)(F)F)cc2)c1 [TT-03324],1000 to 5000,1000 to 5000
Cc1ccccc1C#Cc1cc(C(=O)NCCCc2cn[nH]c2)ccc1-n1cccn1 [TT-03326],< 1000,< 1000
Cc1cccc(C#Cc2cc(C(=O)NCCCn3ccnc3)ccc2-n2cccn2)c1 [TT-03327],< 1000,< 1000
Cc1cccc(C#Cc2cc(C(=O)NCCCc3cn[nH]c3)ccc2-n2cccn2)c1 [TT-03328],< 1000,< 1000
COc1ccccc1C#Cc1cc(C(=O)NCCCc2cn[nH]c2)ccc1-n1cccn1 [TT-03330],< 1000,< 1000
O=C(NCCCn1ccnc1)c1ccc(-n2cccn2)c(C#Cc2cccc(C(F)(F)F)c2)c1 [TT-03331],< 1000,< 1000
O=C(NCCCc1cn[nH]c1)c1ccc(-n2cccn2)c(C#Cc2cccc(C(F)(F)F)c2)c1 [TT-03332],< 1000,< 1000
NCc1ccc(C#Cc2cc(C(=O)NCCCc3cn[nH]c3)ccc2-n2cccn2)cc1 [TT-03334],< 1000,< 1000
C#Cc1cc(C(=O)NCCCc2cn[nH]c2)ccc1-n1cccn1 [TT-03337],> 20000,10000 to 20000
CC(C)(O)C#Cc1cc(C(=O)NCCCc2cn[nH]c2)ccc1-n1cccn1 [TT-03346],> 20000,5000 to 10000
O=C(NCCCc1cn[nH]c1)c1ccc(-n2cccn2)c(C#CC2(O)CCCCC2)c1 [TT-03351],5000 to 10000,5000 to 10000
Nc1cccc(C#Cc2cc(C(=O)NCCCc3cn[nH]c3)ccc2-n2cccn2)n1 [TT-03354],< 1000,< 1000
O=C(NCCCc1cn[nH]c1)c1ccc(-n2cccn2)c(C#Cc2ccccn2)c1 [TT-03355],< 1000,< 1000
N#Cc1cccc(C#Cc2cc(C(=O)NCCCc3cn[nH]c3)ccc2-n2cccn2)c1 [TT-03357],< 1000,< 1000
CNC(=O)c1cccc(C#Cc2cc(C(=O)NCCCc3cn[nH]c3)ccc2-n2cccn2)c1 [TT-03359],< 1000,< 1000
CC(C)(C)OC(=O)NCc1ccc(C#Cc2cc(C(=O)NCCCc3cn[nH]c3)ccc2-n2cccn2)cc1 [TT-03364],1000 to 5000,1000 to 5000
O=C(NCCCc1cn[nH]c1)c1ccc(-n2cccn2)c(C#Cc2ccc(F)cn2)c1 [TT-03569],< 1000,< 1000
O=C(NCCCn1ccnc1)c1ccc(-n2cccn2)c(CCc2ccccc2)c1 [TT-03574],5000 to 10000,5000 to 10000
O=C(NCCCc1cn[nH]c1)c1ccc(-c2ccncc2)c(C#Cc2ccc(F)cc2)c1 [TT-03582],< 1000,< 1000
Cn1cc(-c2ccc(C(=O)NCCCc3cn[nH]c3)cc2C#Cc2ccc(F)cc2)cn1 [TT-03585],< 1000,< 1000
O=C(NCCCc1cn[nH]c1)c1ccc(N2CCC(O)CC2)c(C#Cc2ccc(F)cc2)c1 [TT-03587],< 1000,< 1000
O=C(NCCCc1cn[nH]c1)c1ccc(N2CCCCC2)c(C#Cc2ccc(F)cc2)c1 [TT-03588],< 1000,< 1000

Structure (SMILES),IC50 (U-937) [nM],IC50 (MV4-11) [nM]
O=C(NCCCc1cn[nH]c1)c1ccc(N2CCCCCC2)c(C#Cc2ccc(F)cc2)c1 [TT-03589],< 1000,< 1000
O=C(NCCCc1cn[nH]c1)c1ccc(N2CCC3(CCCCC3)C2)c(C#Cc2ccc(F)cc2)c1 [TT-03590],< 1000,< 1000
O=C(NCCCc1cn[nH]c1)c1ccc(N2CCC(C(F)(F)F)CC2)c(C#Cc2ccc(F)cc2)c1 [TT-03591],< 1000,< 1000
O=C(NCCCc1cn[nH]c1)c1ccc(N2CCCCC2CCO)c(C#Cc2ccc(F)cc2)c1 (stereo not shown) [TT-03592],< 1000,< 1000
CN(C)CC1(O)CCN(c2ccc(C(=O)NCCCc3cn[nH]c3)cc2C#Cc2ccc(F)cc2)C1 (stereo not shown) [TT-03594],< 1000,< 1000
O=C(NCCCc1cn[nH]c1)c1ccc(N2CCCC(CO)C2)c(C#Cc2ccc(F)cc2)c1 (stereo not shown) [TT-03595],< 1000,< 1000
CC(C)(C)OC(=O)N1CCN(c2ccc(C(=O)NCCCc3cn[nH]c3)cc2C#Cc2ccc(F)cc2)CC1 [TT-03596],< 1000,< 1000
O=C(NCCCc1cn[nH]c1)c1ccc(N2CCNCC2)c(C#Cc2ccc(F)cc2)c1 [TT-03597],< 1000,< 1000
CN1CCN(c2ccc(C(=O)NCCCc3cn[nH]c3)cc2C#Cc2ccc(F)cc2)CC1 [TT-03598],< 1000,< 1000
CC(=O)N1CCN(c2ccc(C(=O)NCCCc3cn[nH]c3)cc2C#Cc2ccc(F)cc2)CC1 [TT-03599],< 1000,< 1000
Cc1nccn1-c1ccc(C(=O)NCCCc2cn[nH]c2)cc1C#Cc1ccc(F)cc1 [TT-03602],< 1000,< 1000
O=C(NCCCc1cn[nH]c1)c1ccc(-n2cccn2)c(C#Cc2cccc(N3CCCC3)n2)c1 [TT-03611],< 1000,< 1000
O=C(NCCCc1cn[nH]c1)c1ccc(-n2cccn2)c(C#Cc2ccc3nccn3c2)c1 [TT-03620],< 1000,< 1000
CN(C)c1cccc(C#Cc2cc(C(=O)NCCCc3cn[nH]c3)ccc2-n2cccn2)n1 [TT-03623],< 1000,< 1000
NC(=O)c1cccc(C#Cc2cc(C(=O)NCCCc3cn[nH]c3)ccc2-n2cccn2)c1 [TT-03625],< 1000,< 1000
Cc1nn(-c2ccc(C(=O)NCCCc3cn[nH]c3)cc2C#Cc2ccccc2)c(C)c1C [TT-03626],< 1000,< 1000
O=C(NCCCc1cn[nH]c1)c1ccc(-n2ccnc2)c(C#Cc2ccc(F)cc2)c1 [TT-03627],< 1000,< 1000
Cn1cc(CCCNC(=O)c2ccc(-n3cccn3)c(C#Cc3ccc(F)cc3)c2)cn1 [TT-03630],< 1000,< 1000
O=C(NCCCc1cn[nH]c1)c1ccc(N2CCOCC2)c(C#Cc2ccncc2)c1 [TT-03631],< 1000,< 1000
O=C(NCCCc1cn[nH]c1)c1ccc(N2CCOCC2)c(C#Cc2ccc(F)cn2)c1 [TT-03633],< 1000,< 1000
O=C(NCCCc1cn[nH]c1)c1ccc(-n2cnnc2)c(C#Cc2ccc(F)cc2)c1 [TT-03634],< 1000,< 1000
O=C(NCCCc1cn[nH]c1)c1ccc(N2CCOCC2)c(C#Cc2ccc(Cl)nc2)c1 [TT-03655],< 1000,< 1000
